According to article PMC11123841, “Discovery and Synthesis of Hydroxy-L-Proline Blockers of the Neutral Amino Acid Transporters SLC1A4 (ASCT1) and SLC1A5 (ASCT2)” (Molecules, 2024):
Where “and” joins values, the source holds several entries; their conditions need not be identical. Identical values can stand only once. Like-named read-outs stand apart in the source and are kept apart here. Each block holds one molecule with its values, some of them ahead of it.

Columns and labels:
mSLC1A5 = target: T1, mSLC1A5 (Mus musculus, UniProt P51912); assay: TEVC block of anion leak conductance in oocytes; format: cell-based
T1 construct: expressed in transfected cells; host or cells: Xenopus laevis oocytes (cRNA injection)
T1 sequence (P51912 1-553): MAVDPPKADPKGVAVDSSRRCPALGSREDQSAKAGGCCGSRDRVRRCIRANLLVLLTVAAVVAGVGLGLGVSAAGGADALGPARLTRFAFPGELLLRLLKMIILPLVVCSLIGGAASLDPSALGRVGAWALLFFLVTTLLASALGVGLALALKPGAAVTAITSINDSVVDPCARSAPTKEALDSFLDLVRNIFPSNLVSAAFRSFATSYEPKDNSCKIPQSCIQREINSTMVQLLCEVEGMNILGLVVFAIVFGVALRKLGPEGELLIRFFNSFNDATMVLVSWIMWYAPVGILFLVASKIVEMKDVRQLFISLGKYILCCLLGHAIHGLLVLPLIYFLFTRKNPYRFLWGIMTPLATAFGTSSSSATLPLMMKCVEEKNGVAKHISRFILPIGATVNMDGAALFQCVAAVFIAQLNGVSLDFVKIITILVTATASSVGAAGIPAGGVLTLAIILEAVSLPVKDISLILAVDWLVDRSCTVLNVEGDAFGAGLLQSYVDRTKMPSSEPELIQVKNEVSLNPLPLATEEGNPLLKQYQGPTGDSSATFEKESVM
From the text: (§1) The currents induced by substrates and blocked by hydroxyproline analogs shared a reversal potential shown in the current/voltage relationship consistent with the conductance originating from the same ion pore (Figure 3, inset). […] The observed dose–response relationships are independent of competing substrates, and thus provide a direct measure of the equilibrium inhibition constant (Ki). Each synthetic hydroxyproline analog was functionally assessed for its capacity to inhibit SLC1A4 and SLC1A5 leak currents with affinities reported in Table 1 as determined or approximated Ki.
(§2) Two-electrode voltage clamp (TEVC) transporter currents were recorded with a GeneClamp 500 amplifier and Digidata 1320A analog–digital interface (Molecular Devices, San Jose, CA, USA). Electrodes (0.2–1.0 MΩ) were filled with 3M KCl and the recording chamber was grounded with an agar bridge. Data were acquired with Axograph (v1.7.6) and LabChart (v7) and analyzed with Kaleidagraph software (v4.1) (Synergy, Reading, PA, USA). Uncoupled anion currents associated with the transport of substrate and block of SLC1A4 or SLC1A5 mediated leak conductance were recorded in the presence of Ringer with 50% substitution of NaCl by NaSCN to amplify the non-transported anion conductance.
(§3) Figure 3 AHPCs block a leak current in SLC1A4 and SLC1A5. […] Inset (A): The current and voltage relationship for SLC1A4 currents activated by Ala or blocked by 14b are determined by subtracting voltage jumps in buffer.

SLC1A4 = target: T2, SLC1A4 (Homo sapiens, UniProt P43007); assay: TEVC block of anion leak conductance in oocytes; format: cell-based
T2 construct: expressed in transfected cells; host or cells: Xenopus laevis oocytes (cRNA injection)
T2 sequence (P43007 1-532): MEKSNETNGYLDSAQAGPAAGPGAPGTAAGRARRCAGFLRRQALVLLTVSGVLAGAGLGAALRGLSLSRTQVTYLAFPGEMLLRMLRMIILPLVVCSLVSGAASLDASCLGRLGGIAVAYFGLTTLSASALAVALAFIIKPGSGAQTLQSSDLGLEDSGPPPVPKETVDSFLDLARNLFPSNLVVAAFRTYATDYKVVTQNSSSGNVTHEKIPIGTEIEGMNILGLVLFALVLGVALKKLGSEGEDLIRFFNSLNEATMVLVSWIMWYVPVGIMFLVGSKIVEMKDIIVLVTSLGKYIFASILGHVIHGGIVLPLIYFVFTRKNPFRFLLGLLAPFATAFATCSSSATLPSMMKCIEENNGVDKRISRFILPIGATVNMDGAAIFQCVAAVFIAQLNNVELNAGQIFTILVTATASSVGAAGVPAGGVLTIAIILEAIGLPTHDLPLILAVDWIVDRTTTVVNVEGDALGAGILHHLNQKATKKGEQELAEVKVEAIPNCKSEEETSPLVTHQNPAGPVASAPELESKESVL
From the text: as §1, §2, §3

SLC1A5 (mASCT2) = target: T3, SLC1A5 (mASCT2) (Mus musculus, UniProt P51912); assay: TEVC substrate-induced SCN- anion currents in Xenopus oocytes; format: cell-based
T3 construct: expressed in transfected cells; host or cells: Xenopus laevis oocytes (cRNA injection)
T3 sequence (P51912 1-553): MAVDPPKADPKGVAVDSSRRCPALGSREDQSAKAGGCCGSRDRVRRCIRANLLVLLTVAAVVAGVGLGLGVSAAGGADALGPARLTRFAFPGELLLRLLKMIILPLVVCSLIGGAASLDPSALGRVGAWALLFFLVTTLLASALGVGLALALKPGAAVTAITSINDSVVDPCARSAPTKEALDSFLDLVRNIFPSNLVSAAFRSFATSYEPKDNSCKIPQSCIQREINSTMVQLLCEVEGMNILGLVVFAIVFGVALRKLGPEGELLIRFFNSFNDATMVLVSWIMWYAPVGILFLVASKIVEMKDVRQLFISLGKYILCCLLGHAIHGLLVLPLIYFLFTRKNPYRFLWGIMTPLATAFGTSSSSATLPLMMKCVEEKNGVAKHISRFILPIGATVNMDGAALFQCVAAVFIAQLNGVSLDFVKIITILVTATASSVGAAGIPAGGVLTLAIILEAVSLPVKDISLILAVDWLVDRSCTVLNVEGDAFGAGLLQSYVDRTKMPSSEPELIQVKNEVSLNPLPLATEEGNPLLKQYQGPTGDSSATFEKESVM
Procedure: (§4) Additionally, 4-HP applied at 1 mM was used to assess activity at the glutamate transporters SLC1A3 or SLC1A1.
(§5) Uptake was halted by washing 3 times with 4 °C ND96 buffer. Oocytes were then lysed in 0.1% Triton X-100, and radioactivity was counted via liquid scintillation. Dose response curves were generated by fitting fractional inhibition (I) to the expression I = Imax × [inhibitor]/([inhibitor] + IC50).
as §2
(§6) (A) SLC1A4 dose response curves for substrate activated anion currents using two-electrode voltage clamp of Xenopus lavies oocytes (−30 mV). […] (B) SLC1A5 dose response curve for substrate activated anion currents using two-electrode voltage clamp (−30 mV). […] Extracellular solutions contained 50 mM NaSCN.

SLC1A4 (hASCT1) = target: T4, SLC1A4 (hASCT1) (Homo sapiens, UniProt P43007); assay: as above; format: cell-based
T4 construct: expressed in transfected cells; host or cells: Xenopus laevis oocytes (cRNA injection)
T4 sequence (P43007 1-532): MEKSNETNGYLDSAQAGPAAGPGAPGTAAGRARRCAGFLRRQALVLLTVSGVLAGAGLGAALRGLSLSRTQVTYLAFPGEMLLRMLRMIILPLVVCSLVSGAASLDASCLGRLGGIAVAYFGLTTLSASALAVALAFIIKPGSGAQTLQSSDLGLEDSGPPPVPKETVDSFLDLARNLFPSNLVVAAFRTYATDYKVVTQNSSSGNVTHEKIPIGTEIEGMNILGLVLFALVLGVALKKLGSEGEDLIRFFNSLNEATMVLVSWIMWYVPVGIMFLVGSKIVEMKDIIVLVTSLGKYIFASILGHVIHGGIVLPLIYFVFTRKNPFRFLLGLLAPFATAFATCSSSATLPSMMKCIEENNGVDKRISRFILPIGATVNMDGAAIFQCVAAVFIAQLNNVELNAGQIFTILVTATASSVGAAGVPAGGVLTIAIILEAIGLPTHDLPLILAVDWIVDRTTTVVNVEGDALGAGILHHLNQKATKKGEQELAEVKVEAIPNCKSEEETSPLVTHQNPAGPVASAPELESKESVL
Procedure: as §4, §5, §2, §6

[1] = substrate: O=C(O)[C@@H]1C[C@@H](O)CN1; assay: as above; format: cell-based, human; conditions: other: SLC1A4; substrate activated anion currents, TEVC −30 mV, 50 mM NaSCN, Michaelis-Menten fit
[2] = substrate: O=C(O)[C@H]1NCC[C@@H]1O; assay: as above; format: cell-based, human; conditions: other: SLC1A4; substrate activated anion currents, TEVC −30 mV, 50 mM NaSCN, Michaelis-Menten fit
[3] = substrate: C[C@H](N)C(=O)O; assay: cells, lysate or membranes; conditions: other: SLC1A4; substrate activated anion currents, TEVC −30 mV, 50 mM NaSCN, Michaelis-Menten fit
[4] = substrate: O=C(O)[C@@H]1C[C@@H](O)CN1; assay: TEVC substrate-induced SCN- anion currents in Xenopus oocytes; format: cell-based, mouse; conditions: other: SLC1A5; substrate activated anion currents, TEVC −30 mV, 50 mM NaSCN, Michaelis-Menten fit
[5] = substrate: NC(=O)CC[C@H](N)C(=O)O; assay: as above; format: cell-based, mouse; conditions: other: SLC1A5; substrate activated anion currents, TEVC −30 mV, 50 mM NaSCN, Michaelis-Menten fit
[6] = substrate: O=C(O)[C@H]1NCC[C@@H]1O; assay: as above; format: cell-based, mouse; conditions: other: SLC1A5; substrate activated anion currents, TEVC −30 mV, 50 mM NaSCN, Michaelis-Menten fit

block of anion leak conductance / inhibition (mSLC1A5; SLC1A5): block the anion conductance | fold higher affinity than 12a (mSLC1A5; SLC1A5): ~ 6 fold | Ki (mSLC1A5; SLC1A5, read-out: Ki): < 100 µM | block of anion leak conductance / inhibition (SLC1A4; SLC1A4): block the anion conductance | fold higher affinity than 12a (SLC1A4; SLC1A4): ~ 6 fold | Ki (SLC1A4; SLC1A4, read-out: Ki): < 100 µM
Molecule: O=C(O)[C@H]1NC[C@@H](OCc2ccccc2)[C@@H]1O [14c]

Ki (mSLC1A5; mSLC1A5, from dose–response of blocked anion conductance, compounds tested only once without standard error, read-out: SLC1A5 Ki): 502 ± 110 µM | Ki (SLC1A4; from dose–response of blocked anion conductance, compounds tested only once without standard error, read-out: SLC1A4 Ki): 594 ± 191 µM
Molecule: O=C(O)C1NCC(O)C1Oc1ccccc1 (stereo not drawn) [12b]

Molecule: O=C(O)[C@@H]1C[C@H](O)CN1 [compound 1, cis-4-hydroxy-L-proline, reference compound]
concentration at which leak anion current is blocked (mSLC1A5; SLC1A5 (transporter not given)): above 500 µM | concentration at which leak anion current is blocked (SLC1A4; SLC1A4 (transporter not given)): above 500 µM | substrate currents (SLC1A5 (mASCT2)): did not induce detectable substrate currents | substrate currents (SLC1A4 (hASCT1)): did not induce detectable substrate currents

B1: SLC1A4 (hASCT1) (Homo sapiens) (protein)
chain: MEKSNETNGYLDSAQAGPAAGPGAPGTAAGRARRCAGFLRRQALVLLTVSGVLAGAGLGAALRGLSLSRTQVTYLAFPGEMLLRMLRMIILPLVVCSLVSGAASLDASCLGRLGGIAVAYFGLTTLSASALAVALAFIIKPGSGAQTLQSSDLGLEDSGPPPVPKETVDSFLDLARNLFPSNLVVAAFRTYATDYKVVTQNSSSGNVTHEKIPIGTEIEGMNILGLVLFALVLGVALKKLGSEGEDLIRFFNSLNEATMVLVSWIMWYVPVGIMFLVGSKIVEMKDIIVLVTSLGKYIFASILGHVIHGGIVLPLIYFVFTRKNPFRFLLGLLAPFATAFATCSSSATLPSMMKCIEENNGVDKRISRFILPIGATVNMDGAAIFQCVAAVFIAQLNNVELNAGQIFTILVTATASSVGAAGVPAGGVLTIAIILEAIGLPTHDLPLILAVDWIVDRTTTVVNVEGDALGAGILHHLNQKATKKGEQELAEVKVEAIPNCKSEEETSPLVTHQNPAGPVASAPELESKESVL
notes: expressed in transfected cells; host or cells: Xenopus laevis oocytes (cRNA injection)
Km [1]: 17.1 ± 0.8 µM | Km [2]: 13.5 ± 1.8 µM | Km [3]: 40.0 ± 1.8 µM and 40.3 µM

B2: SLC1A5 (mASCT2) (Mus musculus) (protein)
chain: MAVDPPKADPKGVAVDSSRRCPALGSREDQSAKAGGCCGSRDRVRRCIRANLLVLLTVAAVVAGVGLGLGVSAAGGADALGPARLTRFAFPGELLLRLLKMIILPLVVCSLIGGAASLDPSALGRVGAWALLFFLVTTLLASALGVGLALALKPGAAVTAITSINDSVVDPCARSAPTKEALDSFLDLVRNIFPSNLVSAAFRSFATSYEPKDNSCKIPQSCIQREINSTMVQLLCEVEGMNILGLVVFAIVFGVALRKLGPEGELLIRFFNSFNDATMVLVSWIMWYAPVGILFLVASKIVEMKDVRQLFISLGKYILCCLLGHAIHGLLVLPLIYFLFTRKNPYRFLWGIMTPLATAFGTSSSSATLPLMMKCVEEKNGVAKHISRFILPIGATVNMDGAALFQCVAAVFIAQLNGVSLDFVKIITILVTATASSVGAAGIPAGGVLTLAIILEAVSLPVKDISLILAVDWLVDRSCTVLNVEGDAFGAGLLQSYVDRTKMPSSEPELIQVKNEVSLNPLPLATEEGNPLLKQYQGPTGDSSATFEKESVM
notes: as for B1
Km [4]: 76.3 ± 11.0 µM | Km [5]: 47.4 ± 4.6 µM | Km [6]: 28.6 ± 6.4 µM
